The values below come from US11491157B2, “Cycloalkyl substituted pyrazolopyrimidines having activity against RSV” (priority 2018, dated 2022).

In one series the test system is rgRSV224 virus. As to the kind of experiment: Antiviral activity: rgRSV224 (GFP) replication in HeLa cells. The conditions noted are these: human respiratory syncytial virus, 72 h, read-out: RSV HELA EC50.
Another series can be described thus: in vitro. The conditions noted are these: human.
A short description of series [1]: Cytotoxicity in HeLa cells (ATP content, ATPlite kit). To be noted: human.
Procedure: (§1) Black 384-well clear-bottom microtiter plates (Corning, Amsterdam, The Netherlands) were filled via acoustic drop ejection using the echo liquid handler (Labcyte, Sunnyvale, Calif.). 200 nL of compound stock solutions (100% DMSO) were transferred to the assay plates. 9 serial 4-fold dilutions of compound were made, creating per quadrant the same compound concentration. The assay was initiated by adding 10 μL of culture medium to each well (RPMI medium without phenol red, 10% FBS-heat inactivated, 0.04% gentamycin (50 mg/mL). All addition steps are done by using a multidrop dispenser (Thermo Scientific, Erembodegem, Belgium). Next, rgRSV224 virus (MOI=1) diluted in culture medium was added to the plates. rgRSV224 virus is an engineered virus that includes an additional GFP gene (Hallak L K, Spillmann D, Collins P L, Peeples M E. Glycosaminoglycan sulfation requirements for respiratory syncytial virus infection; Journal of virology (2000), 74(22), 10508-13) and was in-licensed from the NIH (Bethesda, Md., USA). Finally, 20 μL of a HeLa cell suspension (3,000 cells/well) were plated. Medium, virus- and mock-infected controls were included in each test. The wells contain 0.05% DMSO per volume. Cells were incubated at 37° C. in a 5% CO2 atmosphere. Three days post-virus exposure, viral replication was quantified by measuring GFP expression in the cells by an in house developed MSM laser microscope (Tibotec, Beerse, Belgium). The EC50 was defined as the 50% inhibitory concentration for GFP expression. In parallel, compounds were incubated for three days in a set of white 384-well microtiter plates (Corning) and the cytotoxicity of compounds in HeLa cells was determined by measuring the ATP content of the cells using the ATPlite kit (Perkin Elmer, Zaventem, Belgium) according to the manufacturer's instructions. The CC50 was defined as the 50% concentration for cytotoxicity.

Bounds are passed on as bounds.

Procedure for in vitro: as §1
Procedure for rgRSV224 virus: as §1

Regarding `C=CCNC(=O)[C@H]1C[C@@H]1c1ccc(-c2cc3nc(C(=O)N4CCc5ccccc5[C@H]4C)cc(C4CC4)n3n2)c(F)c1` [Compound 16, (1S,2S)-2-(4-{7-Cyclopropyl-5-[(1R)-1-methyl-1,2,3,4-tetrahydroisoquinoline-2-carbonyl]pyrazolo[1,5-a]pyrimidin-2-yl}-3-fluorophenyl)-N-(prop-2-en-1-yl)cyclopropane-1-carboxamide], the melting point was 240.35 °C. The EC50 in the series with rgRSV224 virus came out at 263 nM. In the series “in vitro”, this compound displayed a CC50 at 3 days above 100000 nM.

As for `C[C@@H]1c2ccccc2CCN1C(=O)c1cc(C2CC2)n2nc(-c3ccc([C@H]4C[C@@H]4C(=O)NCCC#N)cc3F)cc2n1` [Compound 18, (1S,2S)—N-(2-Cyanoethyl)-2-(4-{7-cyclopropyl-5-[(1R)-1-methyl-1,2,3,4-tetrahydro-isoquinoline-2-carbonyl]pyrazolo[1,5-a]pyrimidin-2-yl}-3-fluorophenyl)cyclopropane-1-carboxamide], the melting point turned out to be 212.72 °C. For the same compound, the EC50 in the series on rgRSV224 virus is 76 nM. For the same compound, in “in vitro”, the CC50 at 3 days is above 100000 nM.

In the case of `C[C@@H]1c2ccccc2CCN1C(=O)c1cc(C2CC2)n2nc(-c3ccc([C@H]4C[C@@H]4C(=O)NC4COC4)cc3F)cc2n1` [Compound 19, (1S,2S)-2-(4-{7-Cyclopropyl-5-[(1R)-1-methyl-1,2,3,4-tetrahydroisoquinoline-2-carbonyl]-pyrazolo[1,5-a]pyrimidin-2-yl}-3-fluorophenyl)-N-(oxetan-3-yl)cyclopropane-1-carboxamide], the melting point was 248.97 °C. In addition, the EC50 in the series on rgRSV224 virus is 95 nM. In addition, in “in vitro”, the CC50 at 3 days is above 100000 nM.

Consider `C[C@@H]1c2ccccc2CCN1C(=O)c1cc(C2CC2)n2nc(-c3ccc([C@H]4C[C@@H]4C(=O)NS(C)(=O)=O)cc3F)cc2n1` [Compound 24, (1S,2S)-2-(4-{7-Cyclopropyl-5-[(1R)-1-methyl-1,2,3,4-tetrahydroisoquinoline-2-carbonyl]pyrazolo[1,5-a]pyrimidin-2-yl}-3-fluorophenyl)-N-methanesulfonyl-cyclopropane-1-carboxamide], for which the melting point came to 166.75 °C. For the same compound, in the series on rgRSV224 virus, the EC50 is 20 nM. Further, the CC50 at 3 days in the series “in vitro” is 44900 nM.

Regarding `CCS(=O)(=O)NC(=O)[C@H]1C[C@@H]1c1ccc(-c2cc3nc(C(=O)N4CCc5ccccc5[C@H]4C)cc(C4CC4)n3n2)c(F)c1` [Compound 25, (1S,2S)-2-(4-{7-Cyclopropyl-5-[(1R)-1-methyl-1,2,3,4-tetrahydroisoquinoline-2-carbonyl]pyrazolo[1,5-a]pyrimidin-2-yl}-3-fluorophenyl)-N-(ethanesulfonyl)-cyclopropane-1-carboxamide], the melting point was found to be 171.93 °C. In addition, the EC50 with rgRSV224 virus was found to be 34 nM. The compound also yielded a CC50 at 3 days in the series “in vitro” of 51900 nM.

Compound `CC(C)CS(=O)(=O)NC(=O)[C@H]1C[C@@H]1c1ccc(-c2cc3nc(C(=O)N4CCc5ccccc5[C@H]4C)cc(C4CC4)n3n2)c(F)c1` [Compound 26, (1S,2S)-2-(4-{7-Cyclopropyl-5-[(1R)-1-methyl-1,2,3,4-tetrahydroisoquinoline-2-carbonyl]pyrazolo[1,5-a]pyrimidin-2-yl}-3-fluorophenyl)-N-(2-methylpropanesulfonyl)-cyclopropane-1-carboxamide] displayed a melting point of 160.53 °C. Besides, the EC50 in the series with rgRSV224 virus worked out at 138 nM. In addition, in the series “in vitro”, the CC50 at 3 days was 52100 nM.

`C[C@@H]1c2ccccc2CCN1C(=O)c1cc(C2CC2)n2nc(-c3ccc([C@H]4C[C@@H]4C(=O)NS(=O)(=O)C4CC4)cc3F)cc2n1` [Compound 27, (1S,2S)—N-(Cyclopropanesulfonyl)-2-(4-{7-cyclopropyl-5-[(1R)-1-methyl-1,2,3,4-tetrahydroisoquinoline-2-carbonyl]pyrazolo[1,5-a]pyrimidin-2-yl}-3-fluorophenyl)-cyclopropane-1-carboxamide]: the melting point is 177.21 °C. The EC50 in the series on rgRSV224 virus is 40 nM. Further, in “in vitro”, the CC50 at 3 days was 55800 nM.

The compound `C[C@@H]1c2ccccc2CCN1C(=O)c1cc(C2CC2)n2nc(-c3ccc([C@H]4C[C@@H]4NC(=O)NC4CC4)cc3F)cc2n1` [Compound 30, 1-Cyclopropyl-3-[(1S,2R)-2-(4-{7-cyclopropyl-5-[(1R)-1-methyl-1,2,3,4-tetrahydro-isoquinoline-2-carbonyl]pyrazolo[1,5-a]pyrimidin-2-yl}-3-fluorophenyl)cyclopropyl]urea] showed a melting point of 213.73 °C. The EC50 with rgRSV224 virus turned out to be 49 nM. Further, the CC50 at 3 days in the series “in vitro” is 40800 nM.

Regarding `CC(=O)N[C@H]1C[C@@H]1c1ccc(-c2cc3nc(C(=O)N4CCc5ccccc5[C@H]4C)cc(C4CC4)n3n2)c(F)c1` [Compound 34, N-[(1S,2R)-2-(4-{7-Cyclopropyl-5-[(1R)-1-methyl-1,2,3,4-tetrahydroisoquinoline-2-carbonyl]pyrazolo[1,5-a]pyrimidin-2-yl}-3-fluorophenyl)cyclopropyl]acetamide], the melting point amounted to 232.53 °C. Besides, the EC50 in the series with rgRSV224 virus was found to be 22 nM. The compound further showed a CC50 at 3 days in “in vitro” above 100000 nM.

Consider `C[C@@H]1c2ccccc2CCN1C(=O)c1cc(C2CC2)n2nc(-c3ccc([C@H]4C[C@@H]4NP(C)(C)=O)cc3F)cc2n1` [Compound 37, (1R)-2-(7-Cyclopropyl-2-{4-[(1R,2S)-2-[(dimethylphosphoryl)amino]cyclopropyl]-2-fluorophenyl}pyrazolo[1,5-a]pyrimidine-5-carbonyl)-1-methyl-1,2,3,4-tetrahydroisoquinoline], for which the CC50 at 3 days in series [1] came to 41600 nM. In the series with rgRSV224 virus, the EC50 is 63 nM.

Turning to `C[C@@H]1c2ccccc2CCN1C(=O)c1cc(C2CC2)n2nc(-c3ccc([C@H]4C[C@@H]4OC(N)=O)cc3F)cc2n1` [Compound 39, (1S,2R)-2-(4-{7-Cyclopropyl-5-[(1R)-1-methyl-1,2,3,4-tetrahydroisoquinoline-2-carbonyl]pyrazolo[1,5-a]pyrimidin-2-yl}-3-fluorophenyl)cyclopropyl carbamate], the melting point is 297.87 °C. Further, in the series on rgRSV224 virus, the EC50 was determined as 82 nM. Moreover, in “in vitro”, the CC50 at 3 days is 12500 nM.

On to `CNC(=O)O[C@H]1C[C@@H]1c1ccc(-c2cc3nc(C(=O)N4CCc5ccccc5[C@H]4C)cc(C4CC4)n3n2)c(F)c1` [Compound 40, (1S,2R)-2-(4-{7-Cyclopropyl-5-[(1R)-1-methyl-1,2,3,4-tetrahydroisoquinoline-2-carbonyl]pyrazolo[1,5-a]pyrimidin-2-yl}-3-fluorophenyl)cyclopropyl N-methylcarbamate], for which the melting point is 274.46 °C. Moreover, in the series with rgRSV224 virus, the EC50 worked out at 138 nM. The same compound came in with a CC50 at 3 days in “in vitro” above 100000 nM.

On to `C[C@@H]1c2ccccc2CCN1C(=O)c1cc(C2CC2)n2nc(-c3ccc([C@H]4C[C@@H](CO)C4)cc3F)cc2n1` [Compound 42, [cis-3-(4-{7-Cyclopropyl-5-[(1R)-1-methyl-1,2,3,4-tetrahydroisoquinoline-2-carbonyl]-pyrazolo[1,5-a]pyrimidin-2-yl}-3-fluorophenyl)cyclobutyl]methanol], for which the melting point was found to be 129.63 °C. Also, in the series on rgRSV224 virus, the half-maximal effective concentration (EC50) is 263 nM. The compound further had a CC50 at 3 days in the series “in vitro” of 69200 nM.

In turn, `C[C@@H]1c2ccccc2CCN1C(=O)c1cc(C2CC2)n2nc(-c3ccc([C@H]4C[C@@H](COC(N)=O)C4)cc3F)cc2n1` [Compound 44, [cis-3-(4-{7-Cyclopropyl-5-[(1R)-1-methyl-1,2,3,4-tetrahydroisoquinoline-2-carbonyl]pyrazolo[1,5-a]pyrimidin-2-yl}-3-fluorophenyl)cyclobutyl]methyl carbamate] returned a melting point of 300.97 °C. Moreover, in the series with rgRSV224 virus, the EC50 was 332 nM. Also, in “in vitro”, the CC50 at 3 days was above 100000 nM.

For `CNC(=O)C[C@H]1C[C@@H](c2ccc(-c3cc4nc(C(=O)N5CCc6ccccc6[C@H]5C)cc(C5CC5)n4n3)c(F)c2)C1` [Compound 48, N-methyl-2-[cis-3-(4-{7-cyclopropyl-5-[(1R)-1-methyl-1,2,3,4-tetrahydroisoquinoline-2-carbonyl]pyrazolo[1,5-a]pyrimidin-2-yl}-3-fluorophenyl)cyclobutyl]acetamide], the melting point was determined as 143.95 °C. Moreover, the EC50 with rgRSV224 virus was 151 nM. Moreover, the CC50 at 3 days in the series “in vitro” was 23900 nM.
